According to the supplement of paper PMC10307832:

Columns and labels:
Assay in all cases: relative viability (nuclei count vs DMSO), 5 days (fraction); higher = more cells survive
[1] = compound: C1CC(C2=C(C1)C3=C(N2)C=CC(=C3)Cl)C(=O)N [Selisistat] + CC(C)C[C@H](NC(=O)[C@H](Cc1ccccc1)NC(=O)c1cnccn1)B(O)O [Bortezomib] (partner 0.002 µM)
In short: (§1)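 For relative viability, nuclei counts in treated wells were divided by those in vehicle wells. Lung cancer cell lines had been pin-tool dosed in 1536-well plates the day after seeding and cultured for 5 days, then fixed and stained in one step (final 0.05% Triton X-100, 1% formaldehyde, 1 ug/ml Hoechst) and imaged at 4×. Doses were one drug alone or a fixed anchor-drug dose plus five library-drug doses (not always all listed) in √10 steps, and values are duplicate-plate medians.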

[2] = compound: C1CC(C2=C(C1)C3=C(N2)C=CC(=C3)Cl)C(=O)N [Selisistat] + CC1(C)CCC(c2ccc(Cl)cc2)=C(CN2CCN(c3ccc(C(=O)NS(=O)(=O)c4ccc(N[C@H](CCN5CCOCC5)CSc5ccccc5)c(S(=O)(=O)C(F)(F)F)c4)cc3)CC2)C1 [Navitoclax] (partner 0.5 µM)
In short: as §1

[3] = compound: C1CC(C2=C(C1)C3=C(N2)C=CC(=C3)Cl)C(=O)N [Selisistat] + Nc1nc2[nH]cc(CCc3ccc(C(=O)N[C@@H](CCC(=O)O)C(=O)O)cc3)c2c(=O)[nH]1 [Pemetrexed] (partner 0.2 µM)
In short: as §1

[4] = compound: c1ccc2c(CCNc3ccc(Nc4ccncc4)cc3)c[nH]c2c1 [Serdemetan] + N=C(N)NC(=N)NCCc1ccccc1 [Phenformin] (partner 250 µM)
In short: as §1

Cell Line	relative viability ([1]; first compound 0.4 µM)	relative viability ([1]; first compound 1.265 µM)	relative viability ([1]; first compound 4 µM)	relative viability ([1]; first compound 12.65 µM)	relative viability ([1]; first compound 40 µM)	relative viability ([2]; first compound 0.4 µM)	relative viability ([2]; first compound 1.265 µM)	relative viability ([2]; first compound 4 µM)	relative viability ([2]; first compound 12.65 µM)	relative viability ([2]; first compound 40 µM)	relative viability ([3]; first compound 0.4 µM)	relative viability ([3]; first compound 1.265 µM)	relative viability ([3]; first compound 4 µM)	relative viability ([3]; first compound 12.65 µM)	relative viability ([3]; first compound 40 µM)	relative viability ([4]; first compound 0.04 µM)	relative viability ([4]; first compound 0.1265 µM)	relative viability ([4]; first compound 0.4 µM)	relative viability ([4]; first compound 1.265 µM)	relative viability ([4]; first compound 4 µM)
201T	1.13	1.08	1.1	1.11	1.08	1.21	1.17	1.16	1.25	1.25	0.325	0.299	0.364	0.343	0.324	0.435	0.451	0.432	0.353	0.432
A549	–	–	–	–	–	1.27	1.14	1.34	1.28	1.28	–	–	–	–	–	0.0903	0.163	0.209	0.0895	0.0987
A-427	1.02	0.981	1.01	1.02	0.952	0.98	0.986	1.04	0.878	1.11	0.996	1.04	–	1.07	0.988	0.29	0.279	0.273	0.189	0.198
ABC-1	0.317	0.327	0.312	0.383	0.267	–	–	–	–	–	–	–	–	–	–	0.229	0.235	0.197	0.204	0.224
BEN	0.888	0.984	0.492	0.73	0.609	0.0717	0.0697	0.0619	0.0731	0.0771	0.876	0.614	0.532	0.698	0.68	0.283	0.252	0.271	–	0.267
CAL-12T	0.992	1.12	–	0.768	0.983	1.19	1.04	1.16	1.22	1.14	1.29	1.25	1.3	1.12	1.23	0.508	0.632	0.502	0.562	0.561
COR-L23	0.981	1.02	1.09	0.829	0.863	0.994	1.09	1.07	0.939	0.928	0.182	0.212	0.193	0.19	0.2	0.448	0.468	0.427	0.414	0.42
COR-L 105	0.772	0.868	0.493	0.725	0.72	0.635	0.763	0.671	0.815	0.823	1.16	1.07	1.16	0.869	1.1	0.507	0.418	0.443	0.492	0.431
Calu-6	0.998	0.961	0.992	0.902	0.932	0.832	0.779	0.84	0.82	0.789	–	–	–	–	–	–	–	–	–	–
ChaGo-K-1	0.972	1.03	–	0.917	0.821	0.959	1.1	–	0.881	0.901	0.237	0.247	0.257	0.36	0.231	0.48	0.484	0.458	0.216	0.25
EBC-1	0.611	0.551	0.673	0.494	0.486	0.526	0.416	0.433	0.448	0.459	–	–	–	–	–	–	–	–	–	–
EKVX	1	1	0.671	0.84	1.04	0.905	0.918	0.745	0.874	0.945	0.348	0.314	0.361	0.342	0.404	0.225	0.243	0.14	–	0.241
EMC-BAC-2	1.08	1.05	1.01	1.05	1.04	1.13	1.09	1.07	1.15	1.2	0.406	0.422	0.522	0.331	0.352	0.527	0.543	0.514	0.382	0.494
EPLC-272H	0.933	0.985	–	0.859	0.893	1.07	1.16	–	1.23	1.25	0.257	0.315	0.317	0.336	0.284	0.344	0.295	0.301	0.278	0.294
H3255	0.811	0.61	0.536	0.796	0.883	0.512	0.643	0.293	0.438	0.511	0.556	0.556	0.528	0.552	0.526	0.348	0.387	0.358	0.351	0.397
HARA	1.12	1.19	1.14	1.15	1.06	1.17	1.08	1.17	1.13	1.22	0.266	0.27	–	0.303	0.215	0.466	0.457	0.499	0.257	0.304
HCC-15	1.09	1.03	–	1.04	1.29	0.778	0.737	–	0.756	0.742	0.241	0.222	–	0.23	0.213	0.428	0.459	0.457	0.337	0.367
HCC-44	0.857	0.908	1.02	0.926	0.952	1.03	0.955	0.911	0.997	1.02	0.681	0.675	0.655	0.685	0.691	0.21	0.236	0.21	0.136	0.213
HCC-78	0.515	0.471	–	0.489	0.514	0.961	0.836	0.765	0.705	0.714	0.917	0.949	0.924	0.774	0.878	0.612	0.581	0.595	0.581	0.516
HCC-366	1.07	1.02	0.955	0.98	1.02	1.15	0.965	0.89	0.97	1.08	0.136	0.184	0.193	0.146	0.164	0.665	0.627	0.547	0.0583	0.0869
HCC-827	1.06	1.04	0.994	0.886	0.951	1.03	0.992	1.01	1.01	1.01	0.258	0.266	0.266	0.256	0.251	0.415	0.406	–	0.314	0.366
HOP-62	0.837	1.08	0.867	0.624	0.883	1.07	0.905	1.02	0.934	1.16	0.327	0.284	0.448	0.284	0.488	0.718	0.63	0.721	0.548	0.583

Cell Line	relative viability ([1]; first compound 0.4 µM)	relative viability ([1]; first compound 1.265 µM)	relative viability ([1]; first compound 4 µM)	relative viability ([1]; first compound 12.65 µM)	relative viability ([1]; first compound 40 µM)	relative viability ([2]; first compound 0.4 µM)	relative viability ([2]; first compound 1.265 µM)	relative viability ([2]; first compound 4 µM)	relative viability ([2]; first compound 12.65 µM)	relative viability ([2]; first compound 40 µM)	relative viability ([3]; first compound 0.4 µM)	relative viability ([3]; first compound 1.265 µM)	relative viability ([3]; first compound 4 µM)	relative viability ([3]; first compound 12.65 µM)	relative viability ([3]; first compound 40 µM)	relative viability ([4]; first compound 0.04 µM)	relative viability ([4]; first compound 0.1265 µM)	relative viability ([4]; first compound 0.4 µM)	relative viability ([4]; first compound 1.265 µM)	relative viability ([4]; first compound 4 µM)
IA-LM	0.867	0.735	0.758	0.682	0.881	0.787	0.82	0.946	0.818	0.835	–	–	–	–	–	–	–	–	–	–
LC-2-ad	1	1.02	1.03	0.985	1.05	0.514	0.475	0.507	0.485	0.561	0.263	0.268	0.268	0.285	0.261	0.559	0.589	0.556	0.496	0.579
LCLC-103H	1.15	1.03	0.979	1.14	1.09	–	–	–	–	–	0.42	0.473	0.469	0.509	0.529	0.336	0.352	0.343	0.349	0.322
LK-2	–	–	–	–	–	1.01	0.746	0.954	0.847	1.04	0.271	0.32	0.232	0.265	0.252	0.318	0.64	0.423	0.215	0.335
NCI-H358	–	–	–	–	–	–	–	–	–	–	0.182	0.221	0.158	0.177	0.19	0.302	0.324	0.273	0.286	0.308
NCI-H522	–	–	–	–	–	–	–	–	–	–	1.03	0.646	0.781	0.94	1.1	0.669	0.669	0.67	–	0.679
NCI-H650	0.832	–	0.868	0.636	1.08	–	–	–	–	–	0.961	0.907	1.06	0.921	1.18	0.417	0.44	0.506	0.403	0.481
NCI-H661	0.858	0.816	0.664	0.701	0.704	–	–	–	–	–	0.915	0.898	0.854	0.929	0.861	0.283	0.303	0.254	0.246	0.281
NCI-H727	1.01	0.623	–	–	0.864	0.501	0.445	–	–	0.38	–	–	–	–	–	0.592	0.558	0.642	0.288	0.418
NCI-H1299	1.07	1.07	1.05	1.03	1.02	1.1	1.08	1.01	1.05	1.04	–	–	–	–	–	–	–	–	–	–
NCI-H1395	–	–	–	–	–	1.19	1.14	1.07	1.13	0.937	0.97	0.968	–	0.639	0.908	0.448	0.448	0.471	0.388	0.332
NCI-H1563	0.855	0.753	0.752	0.789	0.581	–	–	–	–	–	0.831	0.857	0.713	0.664	0.611	0.689	0.591	0.567	0.586	0.589
NCI-H1623	–	–	–	–	–	–	–	–	–	–	–	–	–	–	–	0.618	0.617	0.37	0.476	0.739
NCI-H1648	–	–	–	–	–	–	–	–	–	–	0.562	0.584	–	0.599	0.743	–	–	–	–	–
NCI-H1703	0.293	0.286	0.301	0.266	0.332	1.24	1.15	1.25	1.42	1.27	–	–	–	–	–	–	–	–	–	–
NCI-H1793	–	–	–	–	–	0.446	0.326	–	0.472	0.545	1.06	0.824	–	1.03	0.867	0.378	0.293	0.247	0.236	0.26
NCI-H1944	–	–	–	–	–	1.1	0.998	–	1.04	0.927	0.634	0.575	0.458	0.674	0.584	0.197	0.213	0.202	0.128	0.154
NCI-H2170	–	–	–	–	–	0.601	0.623	0.618	0.708	0.713	0.249	0.264	0.25	0.244	0.242	0.374	0.354	0.383	0.35	0.336
NCI-H2342	–	–	–	–	–	–	–	–	–	–	0.806	0.756	0.677	0.77	0.769	0.597	0.538	0.628	0.537	0.393
SK-MES-1	–	–	–	–	–	1.29	1.14	1.4	1.26	1.26	1.01	0.957	0.917	0.828	1.01	0.634	0.646	0.605	0.576	0.456
SW 900	–	–	–	–	–	–	–	–	–	–	0.468	0.464	0.461	0.517	0.46	0.551	0.487	0.674	0.295	0.365
